Assay results as given in ChEMBL document CHEMBL1201862, “PubChem BioAssay data set” (2004).
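Test compounds were applied to cells in 96-well plates for 48 hours at 5 doses. GI50 is the concentration that inhibits growth by half.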 Activity calls are given as the source filed them. Rule as the data show it: active = GI50 up to about 1.1 µM and inactive = higher.

Columns and labels:
Test in all cases: NCI tumour cell line growth inhibition, 48 h
MOLT-4 = system: MOLT-4
SK-MEL-28 = system: SK-MEL-28
A549 = system: A549
UACC-257 = system: UACC-257
OVCAR-5 = system: OVCAR-5
HOP-62 = system: HOP-62
RXF 631 = system: RXF 631
LOX IMVI = system: LOX IMVI
M14 = system: M14
SW-620 = system: SW-620
K562 = system: K562
SK-OV-3 = system: SK-OV-3
HCT-116 = system: HCT-116
HT-29 = system: HT-29
HCC 2998 = system: HCC 2998
IGROV-1 = system: IGROV-1
SNB-19 = system: SNB-19
SNB-75 = system: SNB-75
RPMI-8226 = system: RPMI-8226
NCI-H226 = system: NCI-H226
LXFL 529 = system: LXFL 529
UACC-62 = system: UACC-62
KM12 = system: KM12
EKVX = system: EKVX
SF-268 = system: SF-268
SF-295 = system: SF-295
COLO 205 = system: COLO 205
RXF 393 = system: RXF 393
Malme-3M = system: Malme-3M
UO-31 = system: UO-31
TK-10 = system: TK-10
U-251 = system: U-251
KM-20L2 = system: KM-20L2
SN12C = system: SN12C
CCRF-CEM = system: CCRF-CEM
ACHN = system: ACHN
SF-539 = system: SF-539
HCT-15 = system: HCT-15
786-0 = system: 786-0
NCI-H460 = system: NCI-H460
SNB-78 = system: SNB-78
NCI-H23 = system: NCI-H23
DLD-1 = system: DLD-1
OVCAR-4 = system: OVCAR-4
NCI-H522 = system: NCI-H522
HOP-18 = system: HOP-18
SK-MEL-5 = system: SK-MEL-5
HL-60 = system: HL-60
M19-MEL = system: M19-MEL
A498 = system: A498
SR = system: SR
DMS-273 = system: DMS-273
CAKI-1 = system: CAKI-1
SK-MEL-2 = system: SK-MEL-2
OVCAR-3 = system: OVCAR-3
DMS-114 = system: DMS-114
HOP-92 = system: HOP-92
OVCAR-8 = system: OVCAR-8
XF498 = system: XF498

## COC(=O)/C(=N/NC(=O)C[N+](C)(C)C)C(C(=O)OC)C(=O)C(=O)Nc1ccc(F)cc1 (stereo unspecified)
MOLT-4
  GI50: > 100 µM (inactive)
SK-MEL-28
  GI50: > 100 µM (inactive)
A549
  GI50: > 100 µM (inactive)
UACC-257
  GI50: > 100 µM (inactive)
OVCAR-5
  GI50: > 100 µM (inactive)
HOP-62
  GI50: > 100 µM (inactive)
RXF 631
  GI50: > 100 µM (inactive)
LOX IMVI
  GI50: > 100 µM (inactive)
M14
  GI50: > 100 µM (inactive)
SW-620
  GI50: > 100 µM (inactive)
K562
  GI50: > 100 µM (inactive)
SK-OV-3
  GI50: > 100 µM (inactive)
HCT-116
  GI50: > 100 µM (inactive)
HT-29
  GI50: > 100 µM (inactive)
HCC 2998
  GI50: > 100 µM (inactive)
IGROV-1
  GI50: > 100 µM (inactive)
SNB-19
  GI50: > 100 µM (inactive)
SNB-75
  GI50: > 100 µM (inactive)
RPMI-8226
  GI50: > 100 µM (inactive)
NCI-H226
  GI50: > 100 µM (inactive)
LXFL 529
  GI50: > 100 µM (inactive)
UACC-62
  GI50: > 100 µM (inactive)
KM12
  GI50: > 100 µM (inactive)
EKVX
  GI50: > 100 µM (inactive)
SF-268
  GI50: > 100 µM (inactive)
SF-295
  GI50: > 100 µM (inactive)
COLO 205
  GI50: > 100 µM (inactive)
RXF 393
  GI50: > 100 µM (inactive)
Malme-3M
  GI50: > 100 µM (inactive)
UO-31
  GI50: > 100 µM (inactive)
TK-10
  GI50: > 100 µM (inactive)
U-251
  GI50: > 100 µM (inactive)
KM-20L2
  GI50: > 100 µM (inactive)
SN12C
  GI50: > 100 µM (inactive)
CCRF-CEM
  GI50: > 100 µM (inactive)
ACHN
  GI50: > 100 µM (inactive)
SF-539
  GI50: > 100 µM (inactive)
HCT-15
  GI50: > 100 µM
786-0
  GI50: > 100 µM (inactive)
NCI-H460
  GI50: > 100 µM (inactive)
SNB-78
  GI50: > 100 µM (inactive)
NCI-H23
  GI50: > 100 µM (inactive)
DLD-1
  GI50: > 100 µM (inactive)
OVCAR-4
  GI50: > 100 µM (inactive)
NCI-H522
  GI50: > 100 µM (inactive)
HOP-18
  GI50: > 100 µM (inactive)
SK-MEL-5
  GI50: > 100 µM (inactive)
HL-60
  GI50: > 100 µM (inactive)
M19-MEL
  GI50: > 100 µM (inactive)
A498
  GI50: 63.7 µM (inactive)
SR
  GI50: > 100 µM (inactive)
DMS-273
  GI50: > 100 µM (inactive)
CAKI-1
  GI50: > 100 µM (inactive)
SK-MEL-2
  GI50: > 100 µM (inactive)
OVCAR-3
  GI50: > 100 µM (inactive)
DMS-114
  GI50: > 100 µM (inactive)

## CC(=O)C(C(=O)C(=O)Nc1cc(Cl)c(Cl)cc1Cl)c1csc(N)n1 (stereo unspecified)
MOLT-4
  GI50: > 100 µM (inactive)
SK-MEL-28
  GI50: > 100 µM (inactive)
A549
  GI50: > 100 µM (inactive)
UACC-257
  GI50: > 100 µM (inactive)
OVCAR-5
  GI50: > 100 µM (inactive)
HOP-62
  GI50: > 100 µM (inactive)
RXF 631
  GI50: > 100 µM (inactive)
LOX IMVI
  GI50: > 100 µM (inactive)
M14
  GI50: > 100 µM (inactive)
SW-620
  GI50: > 100 µM (inactive)
K562
  GI50: > 100 µM (inactive)
SK-OV-3
  GI50: > 100 µM (inactive)
HCT-116
  GI50: > 100 µM (inactive)
HT-29
  GI50: > 100 µM (inactive)
HCC 2998
  GI50: > 100 µM (inactive)
HOP-92
  GI50: > 100 µM (inactive)
IGROV-1
  GI50: > 100 µM (inactive)
SNB-19
  GI50: > 100 µM (inactive)
SNB-75
  GI50: > 100 µM (inactive)
RPMI-8226
  GI50: > 100 µM (inactive)
NCI-H226
  GI50: > 100 µM (inactive)
LXFL 529
  GI50: > 100 µM (inactive)
UACC-62
  GI50: > 100 µM (inactive)
KM12
  GI50: > 100 µM (inactive)
OVCAR-8
  GI50: > 100 µM (inactive)
EKVX
  GI50: > 100 µM (inactive)
SF-268
  GI50: > 100 µM (inactive)
SF-295
  GI50: > 100 µM (inactive)
COLO 205
  GI50: > 100 µM (inactive)
RXF 393
  GI50: > 100 µM (inactive)
UO-31
  GI50: > 100 µM (inactive)
TK-10
  GI50: > 100 µM (inactive)
U-251
  GI50: > 100 µM (inactive)
KM-20L2
  GI50: > 100 µM (inactive)
SN12C
  GI50: > 100 µM (inactive)
CCRF-CEM
  GI50: > 100 µM (inactive)
ACHN
  GI50: > 100 µM (inactive)
SF-539
  GI50: > 100 µM (inactive)
HCT-15
  GI50: > 100 µM
NCI-H460
  GI50: > 100 µM (inactive)
SNB-78
  GI50: > 100 µM (inactive)
NCI-H23
  GI50: > 100 µM (inactive)
DLD-1
  GI50: > 100 µM (inactive)
OVCAR-4
  GI50: > 100 µM (inactive)
NCI-H522
  GI50: > 100 µM (inactive)
SK-MEL-5
  GI50: > 100 µM (inactive)
HL-60
  GI50: > 100 µM (inactive)
M19-MEL
  GI50: > 100 µM (inactive)
XF498
  GI50: > 100 µM (inactive)
A498
  GI50: > 100 µM (inactive)
SR
  GI50: > 100 µM (inactive)
DMS-273
  GI50: > 100 µM (inactive)
CAKI-1
  GI50: > 100 µM (inactive)
SK-MEL-2
  GI50: > 100 µM (inactive)
DMS-114
  GI50: > 100 µM (inactive)
